Assay results as given in ChEMBL document CHEMBL1201862, “PubChem BioAssay data set” (2004).
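All cell lines were grown in 96-well plates and treated with compound for 48 hours. GI50 = concentration required for 50% inhibition of growth.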 Active and inactive are the calls of the source. Rule as the data show it: active = GI50 up to about 1.1 µM and inactive = higher. Residues, ends and D or L forms follow the SMILES beside them. *: point of attachment. Boc = CC(C)(C)OC(=O)*; Bz = O=C(c1ccccc1)*

Columns and labels:
Assay in all cases: NCI tumour cell line growth inhibition, 48 h
SN12C = test system: SN12C
A498 = test system: A498
M14 = test system: M14
SK-MEL-2 = test system: SK-MEL-2
CCRF-CEM = test system: CCRF-CEM
PC-3 = test system: PC-3
TK-10 = test system: TK-10
EKVX = test system: EKVX
NCI-H460 = test system: NCI-H460
COLO 205 = test system: COLO 205
ACHN = test system: ACHN
SR = test system: SR
MDA-MB-435 = test system: MDA-MB-435
HT-29 = test system: HT-29
UACC-257 = test system: UACC-257
T47D = test system: T47D
OVCAR-8 = test system: OVCAR-8
NCI-H226 = test system: NCI-H226
NCI-H522 = test system: NCI-H522
MOLT-4 = test system: MOLT-4

Row | Compound | GI50 (SN12C) | GI50 (A498) | GI50 (M14) | GI50 (SK-MEL-2) | GI50 (CCRF-CEM) | GI50 (PC-3) | GI50 (TK-10) | GI50 (EKVX) | GI50 (NCI-H460) | GI50 (COLO 205) | GI50 (ACHN) | GI50 (SR) | GI50 (MDA-MB-435) | GI50 (HT-29) | GI50 (UACC-257) | GI50 (T47D) | GI50 (OVCAR-8) | GI50 (NCI-H226) | GI50 (NCI-H522) | GI50 (MOLT-4)
1 | CCN(CC)c1ccc(/C=C/c2ccnc3ccccc23)cc1 | > 100 µM (inactive) | > 100 µM (inactive) | > 100 µM (inactive) | > 100 µM (inactive) | > 100 µM (inactive) | > 100 µM (inactive) | > 100 µM (inactive) | > 100 µM (inactive) | > 100 µM (inactive) | > 100 µM (inactive) | > 100 µM (inactive) | > 100 µM (inactive) | > 100 µM (inactive) | > 100 µM (inactive) | > 100 µM (inactive) | > 100 µM (inactive) |  |  |  | 
2 | c1ccc2c(c1)/C(=N\NC1=NCCN1)c1nc3ccccc3nc1-2 | 8.51 µM (inactive) |  | 6.65 µM (inactive) |  | 3.8 µM (inactive) | 2.56 µM (inactive) | 14.1 µM (inactive) | 12.9 µM (inactive) | 2.44 µM (inactive) | 2.17 µM (inactive) | 3.21 µM (inactive) | 3.98 µM (inactive) | 6.32 µM (inactive) | 0.521 µM (active) | 5.31 µM (inactive) | 19 µM (inactive) | 1.35 µM (inactive) | 3.63 µM (inactive) | 2.84 µM (inactive) | 1.13 µM (inactive)
3 | O=C1/C(=C/c2ccccc2)CN(C(=O)OCc2ccccc2)C/C1=C\c1ccccc1 | 13.8 µM (inactive) | 27.4 µM (inactive) | 8.07 µM (inactive) | 17.9 µM (inactive) | 2.08 µM (inactive) | 15 µM (inactive) | 27.5 µM (inactive) | 20.7 µM (inactive) | 21.4 µM (inactive) | 16.1 µM (inactive) | 12.5 µM (inactive) | 1.53 µM (inactive) |  | 7.69 µM (inactive) | 16 µM (inactive) | 41.4 µM (inactive) | 13.1 µM (inactive) | 26.2 µM (inactive) | 6.76 µM (inactive) | 2.76 µM (inactive)
4 | COC(=O)C1=C(CCC[C@H](C)O[Si](C)(C)C(C)(C)C)NC(=O)N2[C@@H](CCO)CC[C@H]12 | 15 µM (inactive) | 16.6 µM (inactive) | 16.3 µM (inactive) |  |  |  | 18.6 µM (inactive) | 12.4 µM (inactive) | 20.3 µM (inactive) | 17.6 µM (inactive) | 16.2 µM (inactive) |  | 17.7 µM (inactive) | 15.4 µM (inactive) | 11.8 µM (inactive) | 11.6 µM (inactive) | 15.5 µM (inactive) | 14.6 µM (inactive) | 5.71 µM (inactive) | 18.6 µM (inactive)
5 | CC1(c2nc3cc(Cl)c(Cl)cc3[nH]2)CCC(CO)C(C)(C)O1 (stereo not given) | 32 µM (inactive) |  | 26.2 µM (inactive) | 30.3 µM (inactive) | 27.9 µM (inactive) | 29 µM (inactive) | 27.6 µM (inactive) | 23 µM (inactive) |  | 25.1 µM (inactive) | 30.3 µM (inactive) | 19.9 µM (inactive) | 41.4 µM (inactive) | 16.4 µM (inactive) | 29.6 µM (inactive) | 32.3 µM (inactive) | 19.5 µM (inactive) | 12.4 µM (inactive) | 6.49 µM (inactive) | 24.5 µM (inactive)
6 | S=C(N1CCN(c2ccccc2)CC1)N1CCN(c2ccccc2)CC1 | > 100 µM (inactive) | > 100 µM (inactive) | > 100 µM (inactive) | > 100 µM (inactive) | 24.4 µM (inactive) | > 100 µM (inactive) | > 100 µM (inactive) | > 100 µM (inactive) | > 100 µM (inactive) | > 100 µM (inactive) | > 100 µM (inactive) |  | > 100 µM (inactive) | 55.2 µM (inactive) | > 100 µM (inactive) | > 100 µM (inactive) | > 100 µM (inactive) | 94.6 µM (inactive) | > 100 µM (inactive) | 71.3 µM (inactive)
7 | CC(C)Oc1c(-c2c(OC(C)C)c(=O)c2=O)c(=O)c1=O | > 49.2 µM (inactive) | > 100 µM (inactive) | > 100 µM (inactive) | > 56.9 µM (inactive) | > 52 µM (inactive) |  | > 70.1 µM (inactive) | > 48.5 µM (inactive) | > 60.7 µM (inactive) | > 29.7 µM (inactive) | > 70.6 µM (inactive) | > 100 µM (inactive) | > 30.2 µM (inactive) | > 23.1 µM (inactive) | > 56.4 µM (inactive) | > 100 µM (inactive) | > 34.7 µM (inactive) | > 78.3 µM (inactive) | > 20.1 µM (inactive) | > 36.6 µM (inactive)
8 | C[n+]1cn(-c2nc3ccccc3nc2[N-]S(=O)(=O)c2ccccc2)c2ccccc21 | > 100 µM (inactive) |  | > 100 µM (inactive) | > 100 µM (inactive) | > 100 µM (inactive) | > 100 µM (inactive) | > 100 µM (inactive) | > 100 µM (inactive) | > 100 µM (inactive) | > 100 µM (inactive) | > 100 µM (inactive) | > 100 µM (inactive) | > 100 µM (inactive) | > 100 µM (inactive) | > 100 µM (inactive) | > 100 µM (inactive) | > 100 µM (inactive) | > 100 µM (inactive) | 0.222 µM (active) | > 100 µM (inactive)
9 | O=C(O)/C=C/C(=O)N1Cc2cc3ccccc3nc2C1 | > 100 µM (inactive) |  | > 100 µM (inactive) | > 100 µM (inactive) |  | > 100 µM (inactive) | > 100 µM (inactive) | > 100 µM (inactive) | > 100 µM (inactive) | > 100 µM (inactive) | > 100 µM (inactive) | > 100 µM (inactive) | > 100 µM (inactive) | > 100 µM (inactive) | > 100 µM (inactive) | > 100 µM (inactive) | > 100 µM (inactive) | > 100 µM (inactive) | > 100 µM (inactive) | > 100 µM (inactive)
10 | Cc1n[nH]c(=O)n1/N=C/c1cccc(Cl)c1 | > 100 µM (inactive) | 40.8 µM (inactive) | > 100 µM (inactive) | > 100 µM (inactive) | > 100 µM (inactive) | > 100 µM (inactive) |  | 31 µM (inactive) | > 100 µM (inactive) | > 100 µM (inactive) | > 100 µM (inactive) |  | 94.4 µM (inactive) | > 100 µM (inactive) | > 100 µM (inactive) | > 100 µM (inactive) | 64.7 µM (inactive) | > 100 µM (inactive) |  | 49.3 µM (inactive)
11 | CC(=O)N1C(OC(C)C)CC(C)N1c1ccccc1 (stereo not given) | > 10 µM (inactive) |  | > 10 µM (inactive) | > 10 µM (inactive) | > 10 µM (inactive) | > 10 µM (inactive) | > 10 µM (inactive) | > 10 µM (inactive) | > 10 µM (inactive) | > 10 µM (inactive) | > 10 µM (inactive) | > 10 µM (inactive) | > 10 µM (inactive) | > 10 µM (inactive) | > 10 µM (inactive) | > 10 µM (inactive) | > 10 µM (inactive) | > 10 µM (inactive) |  | > 10 µM (inactive)
12 | Cc1c2c(OCC(O)CN3CCN(c4ccccc4)CC3)nn(C)c(=O)c2c(C)n1-c1ccccc1 (stereo not given) | 18.5 µM (inactive) | 20.3 µM (inactive) | 16.3 µM (inactive) | 17.9 µM (inactive) | 31.2 µM (inactive) | 22 µM (inactive) | 47.5 µM (inactive) | 34.8 µM (inactive) | 25 µM (inactive) | 20.3 µM (inactive) | 20.6 µM (inactive) |  | 29.4 µM (inactive) | 22.7 µM (inactive) | 28 µM (inactive) | 27.5 µM (inactive) | 33 µM (inactive) | 23.2 µM (inactive) | 20.6 µM (inactive) | 30.4 µM (inactive)
13 | CC1=CC(=O)C(=C(C)C)CC1 | > 100 µM (inactive) |  | > 100 µM (inactive) |  | 28.9 µM (inactive) | > 100 µM (inactive) | > 100 µM (inactive) | > 100 µM (inactive) | > 100 µM (inactive) | > 10 µM (inactive) | > 100 µM (inactive) | 48 µM (inactive) | > 100 µM (inactive) | > 100 µM (inactive) | > 100 µM (inactive) | > 100 µM (inactive) | > 100 µM (inactive) | > 100 µM (inactive) | > 100 µM (inactive) | > 100 µM (inactive)
14 | CC(NC(=O)C(Cc1ccc(OC(=O)c2ccccc2)cc1)NC(=O)OC(C)(C)C)C(=O)NC(Cc1ccccc1)C(=O)NCC(N)=O (stereo not given) (Boc-Y(Bz)AFG-NH2; configuration not given here) | 21.1 µM (inactive) | 21.6 µM (inactive) | 17.9 µM (inactive) | 17.9 µM (inactive) | 77.8 µM (inactive) | 18 µM (inactive) | 20.8 µM (inactive) |  | 18.3 µM (inactive) | 29.1 µM (inactive) | 23 µM (inactive) |  | 21.7 µM (inactive) | 19.1 µM (inactive) | 19.1 µM (inactive) | 20.9 µM (inactive) | 24.7 µM (inactive) | 20.9 µM (inactive) | 17.9 µM (inactive) | 29.3 µM (inactive)
15 | O=C1O/C(=C\C=C\CO)C=C1/C=C/CO [LISSOCLINOLIDE] | 27.9 µM (inactive) |  | 20.2 µM (inactive) | 19.3 µM (inactive) | 22.9 µM (inactive) | 14.3 µM (inactive) | 19.1 µM (inactive) | 15.3 µM (inactive) | 32.1 µM (inactive) | 2.23 µM (inactive) | 24.2 µM (inactive) | 34.9 µM (inactive) | 35.7 µM (inactive) | 23 µM (inactive) |  | 20.7 µM (inactive) | 19.2 µM (inactive) | 36.5 µM (inactive) | 10.3 µM (inactive) | 50.6 µM (inactive)
